Laboratory results: the NIST ThermoML archive (doi:10.1021/je0340755)
Numbers after ± are expanded uncertainties.

Test: xn = mol fraction of the nth substance listed
Settings: 101.3 kPa, Liquid; for viscosity: Capillary tube (Ostwald / Ubbelohde) method

CC(O)C(C)O (stereo unspecified) [2,3-butanediol] + O
Settings	mass density, 318.15 K [kg/m3]	mass density, 328.15 K [kg/m3]	speed of sound, 318.15 K [m/s]	speed of sound, 328.15 K [m/s]	viscosity, 328.15 K [mPa·s]
x2 = 0.0546	–	971.78 ± 0.41	–	1397.7 ± 5.9	7.267 ± 0.073
x2 = 0.1435	–	973.84 ± 0.39	–	1413.9 ± 6	6.438 ± 0.071
x2 = 0.2458	–	976.48 ± 0.38	–	1431.2 ± 6	5.44 ± 0.069
x2 = 0.3539	–	979.73 ± 0.36	–	1456.9 ± 6.1	4.404 ± 0.067
x2 = 0.4502	–	983.14 ± 0.34	–	1482.2 ± 6.2	3.532 ± 0.066
x2 = 0.4989	–	985.04 ± 0.33	–	1494.1 ± 6.2	3.117 ± 0.065
x2 = 0.5503	–	987.17 ± 0.32	–	1508.7 ± 6.2	2.705 ± 0.065
x2 = 0.6581	1004.28 ± 0.29	991.86 ± 0.3	1566 ± 6.4	1537.6 ± 6.3	1.94 ± 0.064
x2 = 0.7518	1007.26 ± 0.29	995.6 ± 0.28	1595.2 ± 6.5	1567.1 ± 6.4	1.412 ± 0.063
x2 = 0.8626	1007.49 ± 0.28	997.57 ± 0.27	1605.3 ± 6.5	1596.6 ± 6.5	0.954 ± 0.063
x2 = 0.9092	1005.07 ± 0.27	996.39 ± 0.27	1598.9 ± 6.5	1594.5 ± 6.5	0.802 ± 0.063
x2 = 0.9148	1004.61 ± 0.27	996.11 ± 0.27	1596.7 ± 6.5	1592.9 ± 6.5	0.784 ± 0.063
x2 = 0.9248	1003.67 ± 0.27	995.52 ± 0.27	1596.3 ± 6.5	1590.3 ± 6.5	0.753 ± 0.063
x2 = 0.9305	1003.07 ± 0.27	995.13 ± 0.27	1590.4 ± 6.5	1585.9 ± 6.5	0.735 ± 0.063
x2 = 0.935	1002.56 ± 0.26	994.78 ± 0.27	1583.1 ± 6.5	–	0.721 ± 0.063
x2 = 0.9452	1001.27 ± 0.26	–	1580.2 ± 6.4	–	0.689 ± 0.063
x2 = 0.9542	999.96 ± 0.26	–	1578.1 ± 6.4	–	0.661 ± 0.063
x2 = 0.9703	997.18 ± 0.26	–	1571.6 ± 6.4	–	0.607 ± 0.063
x2 = 0.98	995.19 ± 0.27	–	1558.5 ± 6.4	–	0.574 ± 0.063
x2 = 0.9903	992.79 ± 0.28	–	1548.2 ± 6.3	–	0.539 ± 0.063
x2 = 0.9925	992.23 ± 0.28	–	1544.5 ± 6.3	–	0.531 ± 0.063
x2 = 0.9951	991.55 ± 0.28	–	1540 ± 6.3	–	0.521 ± 0.063
